Laboratory results as given in paper PMC11365428 (The Journal of Biological Chemistry, 2024).
Non-standard residues stand in square brackets, D forms with d. Residues, ends and D or L forms follow the SMILES beside them. pGlu = O=C1CC[C@@H](C(=O)O)N1

Experiments:
Format in all cases: cell-based
[1] = target: apTKRPR-A T376 (Aplysia californica, UniProt A0AAU7SSZ1, DEL377-398); assay: IP1 accumulation assay, C-terminal truncate apTKRPR-A T376
Description: (§1) To express putative Aplysia receptors transiently in CHO-K1 cells, the cDNAs were subcloned into the pcDNA3.1(+) or pcDNA3.1(+)-FLAG (for ELISA experiments only, see “Cell surface expression analysis by ELISA” section) expression vector. On the day before transfection, the CHO-K1 cells were passaged into 60 mm diameter tissue culture–treated dishes, and the transfection experiments were performed when the cells were grown to 70 to 90% confluence. CHO-K1 cells were transfected with the cDNA plasmid constructs using Turbofect Transfection reagent (Thermo Fisher Scientific, R0531), following the manufacturer’s instructions. In brief, 4 μg of the putative receptor plasmids [in pcDNA3.1(+) or pcDNA3.1(+)-FLAG] were mixed with 400 μl of Opti-MEM (Gibco, 11058021), followed by the addition of 15 μl of TurboFect Transfection reagent and incubated at room temperature for 15 min. […]
(§2) The next day, transfected cells were trypsinized and reseeded in an opaque white 96-well half-area (Corning, 3688) or 384-well tissue culture–treated plates (Corning, 3570) at a density of 20,000 cells/well in F-12K and 10% FBS and incubated at 37 °C in a humidified incubator containing 5% CO2 overnight. On the third day, the activation of the putative receptors was detected by monitoring intracellular IP1 concentration using an IP-One Gq kit (Cisbio, 62IPAPEB) in Tecan Spark. […]

[2] = target: apTKRPR-A 5A (Aplysia californica, UniProt A0AAU7SSZ1, S377A/S394A/T379A/T387A/T393A); assay: IP1 accumulation assay, Ser/Thr-to-Ala mutant apTKRPR-A 5A
Description: as §1, §2

[3] = target: T1, apTKRPR-A (Aplysia californica, UniProt A0AAU7SSZ1); assay: Cell surface expression by ELISA after ligand exposure, FLAG-apTKRPR-A; conditions: 10 µM, different durations, compared with 0 min, n = 4
T1 sequence (A0AAU7SSZ1 1-398): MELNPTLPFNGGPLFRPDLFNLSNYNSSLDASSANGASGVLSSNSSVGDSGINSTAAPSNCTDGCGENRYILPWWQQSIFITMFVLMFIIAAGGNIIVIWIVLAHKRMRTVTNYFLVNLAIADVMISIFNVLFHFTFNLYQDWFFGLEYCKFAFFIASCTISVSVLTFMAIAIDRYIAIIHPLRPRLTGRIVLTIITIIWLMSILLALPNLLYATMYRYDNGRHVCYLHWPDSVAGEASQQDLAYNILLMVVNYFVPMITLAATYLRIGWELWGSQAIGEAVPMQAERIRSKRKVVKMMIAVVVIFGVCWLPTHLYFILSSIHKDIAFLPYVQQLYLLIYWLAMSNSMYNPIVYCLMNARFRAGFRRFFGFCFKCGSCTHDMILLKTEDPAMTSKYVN
Description: Cell surface expression determination of apTKRPRs and mutant receptors, all with FLAG tags, was performed using a procedure modified from previous work ([64], [122], [123], [124]). Specifically, CHO-K1 cells were cultured in F-12K medium (Gibco, 21127-022) with 10% FBS (Genial, G11-70500) at 37 °C in a humidified incubator containing 5% CO2. When the cells were grown to 70 to 90% confluence, transfection experiments were performed (see “Cell culture and transfection” section). After 24 h, transfected cells were plated in 96-well white clear-bottom cell culture plates (Corning, 3610) at a density of 20,000 cells in 100 μl per well and incubated overnight. The following day, culture media was aspirated and cells were washed twice with 200 μl of 1× PBS (Procell, PB180327). Then, 100 μl of 1× PBS containing 5% (w/v) BSA was added to each well and incubated at room temperature. After 30 min, 100 μl of 1:10,000 anti-FLAG M2-horseradish peroxidase conjugate (Sigma-Aldrich, Cat A8592) was added to each well and incubated for 30 min at 37 °C. Cells were washed twice with 200 μl of 1× PBS and then incubated with 200 μl of TMB Chromogen Solution (Sangon Biotech, E661007) for 30 min at 37 °C in the dark. Finally, 50 μl of ELISA Stopping Solution (Sangon Biotech, E661006) was added to each well to stop the reaction. The absorbance at 450 nm was measured using a Tecan Spark microplate reader. […]

Chain of apTKRPR-A 5A (A0AAU7SSZ1 entry or part of it S377A/T379A/T387A/T393A/S394A): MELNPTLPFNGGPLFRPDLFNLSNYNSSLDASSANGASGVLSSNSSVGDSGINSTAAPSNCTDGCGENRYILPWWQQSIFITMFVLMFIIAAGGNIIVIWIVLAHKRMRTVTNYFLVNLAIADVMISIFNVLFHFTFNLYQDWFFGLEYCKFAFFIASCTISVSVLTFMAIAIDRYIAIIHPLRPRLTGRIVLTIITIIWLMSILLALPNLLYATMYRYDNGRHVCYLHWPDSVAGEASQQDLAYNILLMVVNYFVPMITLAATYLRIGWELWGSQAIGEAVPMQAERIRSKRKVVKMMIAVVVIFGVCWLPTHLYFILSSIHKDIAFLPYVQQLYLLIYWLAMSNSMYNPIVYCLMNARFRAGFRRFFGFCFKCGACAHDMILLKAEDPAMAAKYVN

SMILES: CC(C)C[C@H](NC(=O)[C@H](Cc1c[nH]cn1)NC(=O)[C@@H]1CCCN1C(=O)[C@@H]1CCC(=O)N1)C(=O)NCC(=O)N[C@@H](Cc1ccccc1)C(=O)N[C@@H](Cc1c[nH]cn1)C(=O)NCC(=O)N[C@@H](CO)C(=O)N[C@@H](CCCNC(=N)N)C(N)=O [apTKRP-2b] ([pGlu]PHLGFHGSR-NH2)
- EC50 [1]: 0.0182 µM
- EC50 [2]: 0.0589 µM
- cell surface receptor expression of apTKRPR-A after agonist exposure [3]: significant loss of receptor expression
